Experimental findings from patent publication US12629398B2, “Method of alleviating obsessive compulsive disorder symptoms by use of a multi-strain probiotic formulation” (Unique Biotech Limited, priority 2024, dated 2026) are described below.

Molecules are shown by their SMILES. Entries after “also recorded” stand apart in the source; their conditions may differ. Where a name gives a salt, the structure may show the parent alone.

Assay [1] deals with CRP. The assay can be described thus: Real-time PCR of cytokine mRNA in the amygdala: CRP. The conditions noted are these: quinpirole vs. vehicle, treatments vs. quinpirole group. The assay is classed as in vivo, rat. On the procedure:
(§1) Experimental design was as given in Ref 12, incorporated herein in its entirety. The rats were randomly distributed into 5 different groups, with 6-8 rats per group (FIG. 1). Group 1, referred to as the “Vehicle” group, received the vehicle for a duration of 8 weeks. Group 2, denoted as the “Probiotic” group, received the peroral (PO) multistrain probiotic at a dose of 1× 10^10 CFU per rat for 8 weeks.
(§2) RT-PCR was performed to analyze the impact of a multistrain probiotic on cytokines mRNA expression (Ref 20, Rahman et al). Briefly, NucleoSpin® RNA isolation kit (#740955.50, DSS Takara Bio India Private Ltd) was used to extract RNA from the rat brain's amygdala. PrimeScript™ 1st strand cDNA synthesis kit (#6110A, DSS Takara Bio India Private Ltd) was used to process these RNA samples to cDNA. The 10 μL reaction mixture was prepared by mixing 5 μL of SYBR Green, 2 μL of the PCR primer (1 μL reverse+1 μL forward) (GCC Biotech, India, Private Ltd.). 1 μL of diluted cDNA template and 2 μL nuclease-free water. For each PCR test, the threshold cycle numbers were averaged across all samples. Using Δ/Δ Ct technique, the relative mRNA expression was calculated. The primers were designed (Table 6) using the software tools NCBI BLAST.
On the technique in general: In qPCR the cycle at which signal appears reflects the starting amount.

The subject of assay [2] is IL-6. The assay is described as follows: Real-time PCR of cytokine mRNA in the amygdala: IL-6. The class given is in vivo, rat. The conditions noted are these: quinpirole vs. vehicle, treatments vs. quinpirole group. On the procedure:
as §1, §2

Assay [3] deals with nNOS. The assay is described as follows: Western blot analysis of nNOS in the frontal cortex. The assay is classed as in vivo, rat. The conditions noted are these: quinpirole vs. vehicle, treatments vs. quinpirole group.
Excerpt: as §1
Radioimmunoprecipitation Assay (RIPA) buffer was used to homogenize the frontal cortex part of the rat brain and then resolved using sodium dodecyl sulfate-polyacrylamide gel electrophoresis (SDS-PAGE). The proteins were then transferred to a nitrocellulose membrane, blocked with 5% bovine serum albumin, and incubated with the primary antibody anti-NOS1 (sc-5302, 1:1000 dilution) overnight at 4° C., followed by incubation with horseradish peroxidase-conjugate secondary antibody at RT. The required proteins were then detected by using an ECL solution.

Assay [4] deals with quinpirole-injected rats. The assay is described as follows: Marble burying test, quinpirole OCD model. The class given is in vivo, Wistar rats. The conditions noted are these: 10 min; quinpirole vs. control; quinpirole effect among rats that received probiotic or fluoxetine.
Excerpt: as §1

The test system of assay [5] is SCFAs. The assay is described as follows: Short-chain fatty acids (SCFAs) in fecal samples by GC-FID. The class given is in vivo, rat. The conditions noted are these: treatments given in quinpirole rats, compared to OCD, unit from Table 7.
Excerpt: as §1
The gas chromatography-flame ionization detection (GC-FID) was used to evaluate the effect of OCD on bacterial metabolites as described earlier in our publications (Ref 22, Rahman et al & Ref 23, Satti et al). Briefly, supernatant acidified with HCL (5 M) and then extracted in diethyl ether to estimate the SCFAs. The acetate, propionate, and butyrate levels were estimated by loading the known amount of each SCFA.

In assay [6] the test system is quinpirole-injected rats. The assay is described as follows: Hole board test, quinpirole OCD model. To be noted: 5-minute session; quinpirole vs. vehicle; treatments in quinpirole rats. The assay is classed as in vivo, Wistar rats.
Excerpt: as §1

Assay [7] has as its system TNF-α. The assay can be described thus: Real-time PCR of cytokine mRNA in the amygdala: TNF-α. The assay is classed as in vivo, rat. The conditions noted are these: quinpirole vs. vehicle, treatments vs. quinpirole group. On the procedure: as §1, §2
Assay [8] has as its system quinpirole-injected rats. The assay is described as follows: Self-grooming test, quinpirole OCD model. The assay is classed as in vivo, Wistar rats. The conditions noted are these: 10 min; quinpirole vs. vehicle; treatments vs. quinpirole group.
Excerpt: as §1

Assay [9] concerns colon. The assay is described as follows: Colon histopathology (H&E and alcian blue-PAS staining). The class given is in vivo, rat. The conditions noted are these: quinpirole vs. control, treatments vs. quinpirole-recipient rats. On the procedure:
as §1
To examine the gut permeability, H&E and alcian-blue PAS staining were performed. The method is already described in our publications (Ref 20, 21, and 22), incorporated herein in its entirety. Briefly, sections were processed for deparaffinization with xylene, rehydration with alcohol, and then stained with H&E and alcian blue-PAS agents. Finally, slides were mounted with (DPX) followed by observations under a microscope (Leica-ICC50 W).

Assay [10] deals with quinpirole-injected rats. The assay is described as follows: Elevated plus maze (EPM) test, anxiety-like behavior, quinpirole OCD model. The class given is in vivo, Wistar rats. To be noted: fluoxetine 10 mg/kg peroral 6 weeks with quinpirole.
Excerpt: as §1

For `CCCN1CCC[C@@H]2Cc3n[nH]cc3C[C@H]21` [Quinpirole, (−)-Quinpirole hydrochloride], the “mRNA expression of CRP” value in assay [1] was “significant increase”.

With `CNCCC(Oc1ccc(C(F)(F)F)cc1)c1ccccc1` (stereo not shown) [Fluoxetine, fluoxetine], in assay [2], the “mRNA expression of IL-6” value is given as “prevents”. In addition, in assay [3], the “expression of nNOS” value is listed as “significantly reduced; also recorded: decreased”. Besides, in assay [4], the “number of marbles buried (increase by quinpirole)” value is recorded as “nonsignificant”. For the same compound, in assay [5], the “butyrate level” value was determined as 3.39 ± 0.32 µg/mL and the “propionate level” value came to 2.99 ± 0.55 µg/mL. Also, the head dipping activity result in assay [6] is “less response”. Also, in assay [7], the “mRNA expression of TNF-α” value is recorded as “prevents”. In assay [8], the “self-grooming activity (number of grooming episodes, score)” value was “did not notice any change”. In assay [9], the “number of mature goblet cells” value was “significantly increased” and the “villus height/crypt depth ratio” value is given as “significantly increased”. Moreover, the open-arms activity entry in assay [10] was “improved”. In addition, in [1], the “mRNA expression of CRP” value is listed as “prevents”.
